{"source": "patent US20080300178A1", "about": "“Method For Treating Huntington's Disease by Inhibiting Dephosphorylation of Huntingtin at S421” (Insitut Curie, priority 2006, published 2008)", "key": {"[1]": {"molecular_target": "GST-huntingtin (amino acids 384 to 467 of human huntingtin fused to GST), before phosphorylation (UniProt P42858)"}, "[2]": {"test_system": "BDNF-containing vesicles transport", "experiment": "BDNF-containing vesicle transport in 109Q/109Q cells (videomicroscopy)", "assay_type": "cell-based, mouse", "conditions": "IGF-1 treatment", "method": "(§1) Videomicroscopy Experiments and Analyses. For videoexperiments rat primary cortical neurons, +/+, and 109Q/109Q cells established from Hdh^Q111 knock-in mouse were prepared, cultured and transfected as previously described (Gauthier et al., 2004; Humbert et al., 2002; Saudou et al., 1998; Trettel et al., 2000). In some cases, primary cultures of cortical neurons are electroporated with the rat neuron Nucleofector® kit according to the supplier's manual (Amaxa, Cologne). Forskolin ([…]; Sigma) and IBMX ([…]; Sigma) were added to the cultures 5 hours after transfection.\n(§2) Videomicroscopy experiments were done two or four days after transfection. Cells were co-transfected with BDNF-eGFP and various constructs of htt or the corresponding empty vectors with a DNA ratio of 1:4. Live videomicroscopy was carried out using an imaging system previously detailed (Gauthier et al., 2004). Cells were grown on glass coverslip that was mounted in a Ludin chamber. The microscope and the chamber were kept at 37° C. (33° C. for knock-in cells). Stacks of 10-15 images with a Z-step of 0.3 μm were acquired with a 100× PlanApo N.A. 1.4 oil immersion objective coupled to a piezo device (PI). Images were collected in stream mode using a Cool Snap HQ camera (Ropper Scientific) set at 2×2 binning with an exposure time of 50 to 100 ms (frequency of 2). […]"}, "[3]": {"test_system": "BDNF-containing vesicles transport", "experiment": "BDNF-containing vesicle transport in primary cortical neurons expressing FL-htt-75Q (videomicroscopy)", "assay_type": "cell-based, rat", "conditions": "IGF-1 treatment", "method": "as §1, §2"}, "[4]": {"test_system": "endogenous huntingtin S421 phosphorylation", "experiment": "Phosphorylation of S421 in primary striatal neurons (Western blot)", "assay_type": "cell-based", "conditions": "rat striatal neurons, 1 μM FK506", "method": "(§3) Cell culture, transfection and drug treatments. Primary cultures of striatal neurons were prepared from E17 Sprague Dawley rats and transfected at 4 days in vitro by a modified calcium phosphate technique (Saudou et al., 1998). Mouse neuronal cells derived from wildtype huntingtin mice (neuronal cells, +/+) and from Hdh^Q109 knock-in mice (109Q/109Q) were cultured as previously described (Trettel et al., 2000) and transfected with Lipofectamine 2000 (Invitrogen, Breda, The Netherlands). When cotransfected (FIG. 3A), the ratio 480-17Q/Akt/CaNA-ΔCaM/CaNB was 1:0.5:1:1. Human HEK 293 cells were cultured in DMEM supplemented with 10% bovine calf serum (BCS) and were transfected by the calcium phosphate technique. SHSY-5Y cells and Jurkat T cells were grown in RPMI supplemented with 10% BCS. Jurkat T cells were transferred to tyrodes buffer (137 mM NaCl, 3 mM KCl, 20 mM Hepes, 2 mM MgCl2, 1 mM CaCl2, 5.6 mM glucose, 0.3 mg/ml BSA; 4×10^6 cells/ml) prior addition of FK506 (1 μM) and/or ionomycin (2.5 μM).\n(§4) Western blot analysis. After transfection/incubation with drugs, cells were washed with ice cold phosphate-buffered saline prior to scraping and lysis. […] Quantification of the signal was performed by densitometric scanning of the film using ImageJ software."}, "[5]": {"test_system": "endogenous huntingtin S421 phosphorylation", "experiment": "Phosphorylation of endogenous huntingtin at S421 in Jurkat T cells (Western blot)", "assay_type": "cell-based, human", "conditions": "ionomycin 2.5 μM", "method": "as §3, §4"}, "[6]": {"test_system": "endogenous huntingtin S421 phosphorylation", "experiment": "Immunofluorescence of phospho-S421-huntingtin in SHSY-5Y cells transfected with wild-type CaNA/CaNB", "assay_type": "cell-based, human", "conditions": "1 μM ionomycin, 15 min", "method": "Immunofluorescence experiments. SHSY-5Y cells were grown on uncoated glass coverslips, transfected with wild-type CaNA/B for 24 hours and treated for 15 min with 1 μM ionomycin (Sigma) or left untreated. Cells were fixed with 4% paraformaldehyde-PHEM buffer for 20 min (in mM: PIPES, 120; HEPES, 50, EGTA, 20; Mg-acetate 4) and incubated with antiphospho-S421-huntingtin-763 (1:100) and anti-CaNA (1:200; Cat#C1956, Sigma) antibodies. Pictures were captured with a three-dimensional deconvolution imaging system as previously described (Gauthier et al., 2004). Mean fluorescence intensity of the phospho-S421 signal was next quantified using Metamorph software (Universal Imaging Corp, Princeton, N.J., USA). For each pair of cells (transfected/non transfected), signal from the transfected cell was standardized by giving a value of 100 to the non-transfected cell. Only non-mitotic cells of the same approximate size were considered. More than 30 cells in total were analyzed in two independent experiments."}, "[7]": {"molecular_target": "GST-huntingtin (amino acids 384 to 467 of human huntingtin fused to GST), phosphorylated at S421 by Akt (UniProt P42858)"}, "Parkinson's disease": {"test_system": "Parkinson's disease", "conditions": "cited from earlier work"}}, "note": "Entries after “also recorded” stand apart in the source; their conditions may differ."}
{"compound": "recombinant Akt", "values": [{"measurement": "phosphorylation of S421 (in vitro kinase assay, immunoblot)", "setting": "[1]", "result": "resulting in the phosphorylation of GST-huntingtin at S421"}]}
{"compound": "IGF-1: IGF-1, activator of the IGF-1/Akt pathway", "values": [{"measurement": "pausing time of BDNF-containing vesicles", "setting": "[2]", "result": "decreasing pausing time; also recorded: decreases pausing time"}, {"measurement": "velocity of BDNF-containing vesicles", "setting": "[2]", "result": "statistically increasing velocity; also recorded: increases velocity"}, {"measurement": "mean velocity of BDNF-containing vesicles", "setting": "[3]", "result": "statistically significant increase in the velocity of BDNF vesicles; also recorded: significantly increases the mean velocity"}, {"measurement": "pausing time of BDNF-containing vesicles", "setting": "[3]", "result": "decreased the pausing time; also recorded: decreases their pausing time"}]}
{"compound": "C=CC[C@@H]1/C=C(\\C)C[C@H](C)C[C@H](OC)[C@H]2O[C@@](O)(C(=O)C(=O)N3CCCC[C@H]3C(=O)O[C@H](/C(C)=C/[C@@H]3CC[C@@H](O)[C@H](OC)C3)[C@H](C)[C@@H](O)CC1=O)[C@H](C)C[C@@H]2OC", "note": "[FK506]", "values": [{"measurement": "time for which S421 phosphorylation remained sustained", "setting": "[4]", "result": "at least 6 hours"}]}
{"compound": "C[C@H](CCC(=O)O)C[C@H](C)C[C@H](C)C(=O)/C=C(\\O)[C@H](C)C[C@H](C)C/C=C/[C@@H](C)[C@@H](O)[C@@H](C)[C@@H](O)C[C@@H]1CC[C@@](C)([C@H]2CC[C@@](C)([C@@H](C)O)O2)O1", "note": "[ionomycin]", "values": [{"measurement": "S421 phosphorylation after ionomycin", "setting": "[5]", "result": "rapid dephosphorylation of huntingtin on S421"}, {"measurement": "huntingtin S421 phosphorylation (mean fluorescence intensity)", "setting": "[6]", "result": "reduction of huntingtin phosphorylation at S421"}, {"measurement": "huntingtin S421 phosphorylation (mean fluorescence intensity)", "setting": "[6]; listed as Ionomycin", "result": "decreased huntingtin S421 phosphorylation"}]}
{"compound": "purified calcineurin (native protein isolated from bovine brain)", "values": [{"measurement": "dephosphorylation of S421 (immunoblot with the anti-phospho-huntingtin-S421-763 antibody)", "setting": "[7]", "result": "calcineurin dephosphorylates S421 of huntingtin in vitro in a time and dose-dependent manner"}]}
{"compound": "CCC(C)(C)C(=O)C(=O)N1CCC[C@H]1C(=O)OCCCc1cccnc1", "note": "[GPI-1046]", "values": [{"measurement": "outcome of clinical trials", "setting": "Parkinson's disease", "result": "have failed"}]}
